Test results from paper PMC3870094 (Environmental science & technology, 2013).
Several values for one entry are separate records, joined by “and”; a condition that tells them apart may be missing. Equal entries are not always repeated.

What was measured:
Rat CYP2B1 [1] = molecular target: T1, Rat CYP2B1 (Rattus norvegicus, UniProt P00176); details: for Depletion of OH-PCB after 60 min: rat CYP2B1, OH-PCB as substrate; for EF of OH-PCB substrate after biotransformation: rat CYP2B1, racemic OH-PCB as substrate; for Average EF of 5-OH-PCB metabolite: formed from parent PCB by rat CYP2B1, 60 min, two enantioselective columns; for Biotransformation activity of atropisomer compared with antipode: Fig. 1A1; for Formation of 4,5-DiOH-PCB from PCB: Fig. 1B1; for 4-OH-PCB metabolites detected by GC-ECD: not confirmed by GC-MS; for Depletion of PCB after 60 min incubation: rat CYP2B1, 1000 ng/mL PCB
T1 sequence (P00176 1-491): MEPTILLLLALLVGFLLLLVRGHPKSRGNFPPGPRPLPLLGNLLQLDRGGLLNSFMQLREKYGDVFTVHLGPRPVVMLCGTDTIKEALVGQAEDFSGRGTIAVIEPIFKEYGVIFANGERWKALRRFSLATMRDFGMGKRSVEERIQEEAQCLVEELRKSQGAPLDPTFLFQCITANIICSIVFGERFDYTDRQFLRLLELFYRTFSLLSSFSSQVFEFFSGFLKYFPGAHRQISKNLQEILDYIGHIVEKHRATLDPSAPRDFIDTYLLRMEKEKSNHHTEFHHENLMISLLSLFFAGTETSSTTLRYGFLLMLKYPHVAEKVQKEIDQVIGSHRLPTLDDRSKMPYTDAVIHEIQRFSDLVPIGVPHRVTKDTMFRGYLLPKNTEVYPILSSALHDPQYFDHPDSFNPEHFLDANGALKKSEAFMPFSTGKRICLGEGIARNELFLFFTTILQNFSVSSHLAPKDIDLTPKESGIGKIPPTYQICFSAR

Rat CYP2B1 [2] = molecular target: T1, Rat CYP2B1; assay type: in vitro ADME; details: for Formation of metabolite with increases in initial (+)-PCB 136 concentration: 500 ng (−)-PCB 136 as major substrate
[3] = cited from earlier work; for EF of OH-PCB 95 in the liver: female C57Bl/6 mice
rat liver microsomes = details: cited from earlier work
[4] = Sprague-Dawley rats, intraperitoneal injection of PCB 136; cited from earlier work
[5] = cited from earlier work

For `Oc1c(O)c(Cl)c(-c2cc(Cl)ccc2Cl)c(Cl)c1Cl` [4,5-95, 3,4-dihydroxy −2,2',5,5',6-pentachlorobiphenyl], the “EF of 4,5-95 formed” value (Rat CYP2B1 [1]; rat CYP2B1, 4-95 incubation, 60 min) was 0.53.

For `Oc1c(O)c(Cl)c(-c2c(Cl)ccc(Cl)c2Cl)c(Cl)c1Cl` [4,5-136, 3,4-dihydroxy −2,2',3',5,6,6'-hexachlorobiphenyl], the “Formation of metabolite with increases in initial (+)-PCB 136 concentration” value (Rat CYP2B1 [2]; 60 min) was “significantly decreased”.

In the case of `Oc1cc(Cl)c(-c2cc(Cl)ccc2Cl)c(Cl)c1Cl` [4-95, 2,2',3,5',6-pentachlorobiphenyl-4-ol], the “Depletion of OH-PCB after 60 min” value (Rat CYP2B1 [1]; 60 min) is listed as 40%, the “EF of OH-PCB substrate after biotransformation” value (Rat CYP2B1 [1]; 60 min) is listed as 0.62 and the “EF of OH-PCB 95 in the liver” value [3] is listed as “about 0.20”.

In the case of `Oc1cc(Cl)c(-c2c(Cl)ccc(Cl)c2Cl)c(Cl)c1Cl` [4-136, 2,2',3,3',6,6'-hexachlorobiphenyl-4-ol], the “Formation of metabolite with increases in initial (−)-PCB 136 concentration” value (Rat CYP2B1 [2]; 500 ng (+)-PCB 136 as major substrate, 60 min) is reported as “significant increase” and the “Formation of metabolite with increases in initial (+)-PCB 136 concentration” value (Rat CYP2B1 [2]; 60 min) is reported as “significantly decreased”.

For `Oc1cc(Cl)c(Cl)c(-c2ccc(Cl)cc2Cl)c1Cl` [5-91, 2,2',3,4',6-pentachlorobiphenyl-5-ol], the “Average EF of 5-OH-PCB metabolite” value (Rat CYP2B1 [1]) is listed as 0.17 and the “EF of 5-OH-PCB from incubation of parent PCB with rat liver microsomes” value (shortened to “EF of 5-OH-PCB … with rat liver microsomes”) (rat liver microsomes) is listed as 0.54.

In the case of `Oc1cc(Cl)c(Cl)c(-c2cc(Cl)ccc2Cl)c1Cl` [5-95, 2,2',3,5',6-pentachlorobiphenyl-5-ol], the “Average EF of 5-OH-PCB metabolite” value (Rat CYP2B1 [1]) is reported as 0.20 and ~ 0.20, the “Biotransformation activity of 5-95 compared with 4-95” value (Rat CYP2B1 [1]; rat CYP2B1, 60 min, Fig. 2A1) is reported as “significantly greater biotransformation activity” and the “Depletion of OH-PCB after 60 min” value (Rat CYP2B1 [1]; 60 min) is reported as 64%. For the same molecule, the “EF of OH-PCB substrate after biotransformation” value (Rat CYP2B1 [1]; 60 min) was 0.46, the “EF of 5-OH-PCB … with rat liver microsomes” value (rat liver microsomes) was 0.36 and the “EF of OH-PCB 95 in the liver” value [3] was ~0.65.

In the case of `Oc1cc(Cl)c(Cl)c(-c2c(Cl)ccc(Cl)c2Cl)c1Cl` [5-136, 2,2',3,3',6,6'-hexachlorobiphenyl-5-ol], the “EF of 5-136 in livers” value [4] is given as “≈ 0.4”, the “Average EF of 5-OH-PCB metabolite” value (Rat CYP2B1 [1]) is given as 0.77 and the “EF of 5-OH-PCB … with rat liver microsomes” value (rat liver microsomes) is given as 0.70. For the same molecule, the “Formation of metabolite with increases in initial (+)-PCB 136 concentration” value (Rat CYP2B1 [2]; 60 min) was “not influenced”.

For `Oc1cc(Cl)c(Cl)c(-c2cc(Cl)c(Cl)cc2Cl)c1Cl` [5-149, 2,2',4',5,5',6-hexachlorobiphenyl-3-ol], the “Average EF of 5-OH-PCB metabolite” value (Rat CYP2B1 [1]) is listed as 0.41 and the “EF of 5-OH-PCB … with rat liver microsomes” value (rat liver microsomes) is listed as 0.66.

For `Oc1cc(Cl)c(Cl)c(-c2ccc(Cl)c(Cl)c2Cl)c1Cl` [5’-132, 2,2',3,3',4',6-hexachlorobiphenyl-5-ol], the “Average EF of 5-OH-PCB metabolite” value (Rat CYP2B1 [1]) is given as 0.85 and the “EF of 5-OH-PCB … with rat liver microsomes” value (rat liver microsomes) is given as 0.30.

In the case of `Clc1ccc(Cl)c(-c2c(Cl)ccc(Cl)c2Cl)c1Cl` [(+)-PCB 136], the “Biotransformation activity of atropisomer compared with antipode” value (Rat CYP2B1 [1]; rat CYP2B1, 60 min) is reported as “significantly higher than their respective antipodes” and the “Biotransformation activity of (+)-PCB 136 in the presence of (−)-PCB 136” value (Rat CYP2B1 [2]; 500 ng (+)-PCB 136, 0-500 ng/mL (−)-PCB 136, 60 min) is reported as “not significantly affected”.

For `Clc1ccc(-c2c(Cl)ccc(Cl)c2Cl)c(Cl)c1Cl` [(−)-132], the “Biotransformation activity of atropisomer compared with antipode” value (Rat CYP2B1 [1]; rat CYP2B1, 60 min) was “significantly higher than their respective antipodes”.

In the case of `Clc1ccc(Cl)c(-c2c(Cl)ccc(Cl)c2Cl)c1Cl` [(−)-PCB 136], the “5-136 atropisomer formed in pure atropisomer incubation” value (Rat CYP2B1 [2]; pure (−)-PCB 136 incubations, Fig. 4A2) is reported as “E1-5-136 was the only metabolite”.

With `Clc1ccc(-c2c(Cl)ccc(Cl)c2Cl)c(Cl)c1` [E1-91] the “Biotransformation activity of atropisomer compared with antipode” value (Rat CYP2B1 [1]; rat CYP2B1, 60 min) was “significantly higher than their respective antipodes”.

For `Clc1ccc(Cl)c(-c2c(Cl)ccc(Cl)c2Cl)c1` [E2-95], the “Biotransformation activity of atropisomer compared with antipode” value (Rat CYP2B1 [1]; rat CYP2B1, 60 min) was “significantly higher than their respective antipodes”.

For `Clc1ccc(-c2c(Cl)ccc(Cl)c2Cl)c(Cl)c1` [PCB 91, 2,2',3,4',6-pentachlorobiphenyl], the “Formation of 4,5-DiOH-PCB from PCB” value (Rat CYP2B1 [1]; rat CYP2B1, 60 min) is listed as “minor metabolites”, the “4-OH-PCB metabolites detected by GC-ECD” value (Rat CYP2B1 [1]; rat CYP2B1, 60 min) is listed as “minor products” and the “Yield of 5-OH-PCB metabolite in rat liver microsomal studies” value (from here on “Yield of 5-OH-PCB metabolite”) (rat liver microsomes) is listed as 20%.

In the case of `Clc1ccc(Cl)c(-c2c(Cl)ccc(Cl)c2Cl)c1` [PCB 95, 2,2',3,5',6-pentachlorobiphenyl], the “4-OH-PCB metabolites detected by GC-ECD” value (Rat CYP2B1 [1]; rat CYP2B1, 60 min) is given as “minor products”, the “Yield of 5-OH-PCB metabolite” value (rat liver microsomes) is given as 8.8% and the “EF of PCB in vivo in rats” value [5] is given as > 0.5.

For `Clc1ccc(-c2c(Cl)ccc(Cl)c2Cl)c(Cl)c1Cl` [PCB 132, 2,2',3,3',4,6'-hexachlorobiphenyl], the “Depletion of PCB after 60 min incubation” value (Rat CYP2B1 [1]; 60 min) is listed as 11% and the “Yield of 5-OH-PCB metabolite” value (rat liver microsomes) is listed as 16%.

With `Clc1ccc(Cl)c(-c2c(Cl)ccc(Cl)c2Cl)c1Cl` [PCB 136, 2,2',3,3',6,6'-hexachlorobiphenyl] the “Depletion of PCB after 60 min incubation” value (Rat CYP2B1 [1]; 60 min) was 21%, the “Formation of 4,5-DiOH-PCB from PCB” value (Rat CYP2B1 [1]; rat CYP2B1, 60 min) was “minor metabolites” and the “4-OH-PCB metabolites detected by GC-ECD” value (Rat CYP2B1 [1]; rat CYP2B1, 60 min) was “minor products”. The “EF of PCB after 30 min microsomal incubation” value (rat liver microsomes; 30 min) was 0.40, the “Yield of 5-OH-PCB metabolite” value (rat liver microsomes) was 22% and the “EF of PCB in mice tissues after oral administration” value ([3]; C57Bl/6 female mice tissues, oral administration) was ~0.7.

For `Clc1cc(Cl)c(-c2c(Cl)ccc(Cl)c2Cl)cc1Cl` [PCB 149, 2,2',3,4',5',6-hexachlorobiphenyl], the “Depletion of PCB after 60 min incubation” value (Rat CYP2B1 [1]; 60 min) is listed as 4%, the Stereoselectivity of biotransformation (Rat CYP2B1 [1]; rat CYP2B1, 60 min) is listed as “no apparent stereoselectivity” and the “EF of PCB 149 after 30 min biotransformation by rat liver microsomes” value (rat liver microsomes; 30 min) is listed as 0.46. For the same molecule, the “Yield of 5-OH-PCB metabolite” value (rat liver microsomes) was 2.6%.
